21 compounds from patent US20170066717A1, “NEW PHENYLAZETIDINECARBOXYLATE OR -CARBOXAMIDE COMPOUNDS” (INVENTIVA, priority 2014, published 2017) can be followed below.

pEC50: −log10 of the molar value.

The target in data set [1] is T1, NURR-1/RXRα (Homo sapiens, UniProt P19793).
T1 construct: expressed in transfected cells; host or cells: Cos-7 cells
Briefly: Transactivation test, NURR-1-Gal4/RXRα, luciferase reporter in Cos-7 cells. As to conditions: for Emax: COS-7, induction level relative to reference XCT0135908 at 2×10^−5 M (=100%), read-out: hNurr1_RXRaFL Emax (%); for pEC50: Cos-7 cells, NURR-1-Gal4/RXRα, luciferase reporter, read-out: hNurr1_RXRaFL EC50. In kind it is cell-based.

For data set [2], the target named is T2, NURR-1/RXRγ (Homo sapiens, UniProt P48443).
T2 construct: expressed in transfected cells; host or cells: Cos-7 cells
The data set can be described thus: Transactivation test, NURR-1-Gal4/RXRγ, luciferase reporter in Cos-7 cells. The class given is cell-based. As to conditions: for Emax: COS-7, induction level relative to reference XCT0135908 at 2×10^−5 M (=100%), read-out: hNurr1_RXRgFL Emax (%); for pEC50: Cos-7 cells, NURR-1-Gal4/RXRγ, luciferase reporter, read-out: hNurr1_RXRgFL EC50. (In general: A reporter such as luciferase makes a cellular process visible.)

T2 sequence (P48443 whole entry): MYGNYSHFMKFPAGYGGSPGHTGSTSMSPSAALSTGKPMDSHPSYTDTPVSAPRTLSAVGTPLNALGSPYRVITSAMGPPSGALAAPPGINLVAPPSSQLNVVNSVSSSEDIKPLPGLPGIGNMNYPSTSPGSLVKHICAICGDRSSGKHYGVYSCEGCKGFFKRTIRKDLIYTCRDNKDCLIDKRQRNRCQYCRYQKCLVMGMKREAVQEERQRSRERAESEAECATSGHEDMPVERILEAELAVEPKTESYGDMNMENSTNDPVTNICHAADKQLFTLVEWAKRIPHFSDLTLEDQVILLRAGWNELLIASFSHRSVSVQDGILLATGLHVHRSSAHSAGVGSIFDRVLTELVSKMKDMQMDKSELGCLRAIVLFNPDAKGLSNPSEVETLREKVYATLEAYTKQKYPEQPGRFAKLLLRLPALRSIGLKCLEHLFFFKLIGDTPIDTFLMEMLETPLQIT
T2 sequence (P43354 whole entry partner): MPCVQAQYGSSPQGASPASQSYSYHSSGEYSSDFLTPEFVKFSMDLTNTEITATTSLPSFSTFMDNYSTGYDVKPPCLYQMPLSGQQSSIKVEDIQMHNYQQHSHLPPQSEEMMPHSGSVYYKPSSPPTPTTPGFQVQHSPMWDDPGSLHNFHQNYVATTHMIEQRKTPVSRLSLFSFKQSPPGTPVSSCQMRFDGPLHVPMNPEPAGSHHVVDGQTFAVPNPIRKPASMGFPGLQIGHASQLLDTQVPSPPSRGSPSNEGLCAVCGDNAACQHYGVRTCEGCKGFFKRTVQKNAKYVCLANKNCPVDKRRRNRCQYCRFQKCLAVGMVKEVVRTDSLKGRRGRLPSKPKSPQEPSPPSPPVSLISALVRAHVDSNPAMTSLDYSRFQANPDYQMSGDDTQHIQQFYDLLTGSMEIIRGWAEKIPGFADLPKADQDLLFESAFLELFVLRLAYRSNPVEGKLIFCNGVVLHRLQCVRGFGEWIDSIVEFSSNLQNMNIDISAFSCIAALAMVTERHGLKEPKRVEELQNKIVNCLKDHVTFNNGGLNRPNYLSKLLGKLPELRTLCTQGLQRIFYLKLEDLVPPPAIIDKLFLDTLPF
T2 sequence (P04386 1-147 partner limits assumed): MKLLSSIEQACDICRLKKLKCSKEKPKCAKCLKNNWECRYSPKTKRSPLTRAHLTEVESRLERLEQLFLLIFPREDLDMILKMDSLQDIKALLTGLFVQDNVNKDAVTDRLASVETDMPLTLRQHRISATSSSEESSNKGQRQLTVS
T1 sequence (P19793 whole entry): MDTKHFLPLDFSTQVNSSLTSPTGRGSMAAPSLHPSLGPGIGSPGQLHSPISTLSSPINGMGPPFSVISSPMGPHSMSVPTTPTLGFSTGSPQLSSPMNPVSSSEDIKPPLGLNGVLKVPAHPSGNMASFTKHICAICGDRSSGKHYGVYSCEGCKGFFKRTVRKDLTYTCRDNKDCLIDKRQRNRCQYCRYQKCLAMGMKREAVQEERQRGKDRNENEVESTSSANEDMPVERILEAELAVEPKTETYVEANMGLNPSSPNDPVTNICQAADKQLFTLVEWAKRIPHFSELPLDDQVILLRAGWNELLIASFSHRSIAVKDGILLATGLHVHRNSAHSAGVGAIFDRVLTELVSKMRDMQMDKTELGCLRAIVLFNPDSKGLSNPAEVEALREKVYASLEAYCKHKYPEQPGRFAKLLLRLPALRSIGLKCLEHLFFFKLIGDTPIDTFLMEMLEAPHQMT
T1 sequence (P43354 whole entry partner): as the sequence (P43354 whole entry partner) above
T1 sequence (P04386 1-147 partner limits assumed): as the sequence (P04386 1-147 partner limits assumed) above

Broadly, the Emax is the greatest response seen or fitted, relative to the assay's reference. What is called pEC50 is the EC50 on a negative log10 scale, so that one unit is a factor of ten. The term melting point denotes the temperature, or range, at which the solid turns liquid. The compound `CC1(C)CNc2c(cc(OC(F)(F)F)cc2-c2cccc(N3CC(C(=O)O)C3)c2)O1` [Example 188, 1-[3-[2.2-dimethyl-7-(trifluoromethoxy)-3,4-dihydro-1,4-benzoxazin-5-yl]phenyl]azetidine-3-carboxylic acid] showed a melting point of 67 to 74 °C. In addition, in data set [1], the maximal effect (Emax) stood at 100% and the negative-log EC50 (pEC50) was 8.15. For the same compound, in data set [2], the Emax was determined as 98% and the pEC50 was 8.05.

In turn, `CC1(C)CNc2c(cc(Cl)cc2-c2cccc(N3CC(C(=O)O)C3)c2)O1` [Example 189, 1-[3-(7-chloro-2,2-dimethyl-3,4-dihydro-1,4-benzoxazin-5-yl)phenyl]azetidine-3-carboxylic acid] yielded a melting point of 81 to 88 °C. In data set [1], the maximal response (Emax) amounted to 110% and the pEC50 is 7.89. For the same compound, in data set [2], the Emax was found to be 119% and the pEC50 was 6.32.

Compound `Cc1cc2c(c(-c3cccc(N4CC(C(=O)O)C4)c3)c1)NCC(C)(C)O2` [Example 190, 1-[3-(2,2,7-trimethyl-3,4-dihydro-1,4-benzoxazin-5-yl)phenyl]azetidine-3-carboxylic acid] came in with a melting point of 82 to 90 °C. For the same compound, in data set [1], the Emax worked out at 110% and the pEC50 is 7.74. Also, in data set [2], the Emax turned out to be 109% and the pEC50 is 7.44.

`CC(C)c1cc2c(c(-c3cccc(N4CC(C(=O)O)C4)c3)c1)NCC(C)(C)O2` [Example 191, 1-[3-(7-isopropyl-2,2-dimethyl-3,4-dihydro-1,4-benzoxazin-5-yl)phenyl]azetidine-3-carboxylic acid] gave a melting point of 78 to 83 °C. Further, in data set [1], the Emax is 90% and the pEC50 was 7.51. Also, in data set [2], the Emax was 91% and the pEC50 is 7.33.

For `CC1(C)CNc2c(cc(C3CC3)cc2-c2cccc(N3CC(C(=O)O)C3)c2)O1` [Example 192, 1-[3-(7-cyclopropyl-2,2-dimethyl-3,4-dihydro-1,4-benzoxazin-5-yl)phenyl]azetidine-3-carboxylic acid], the melting point was in the range of 70 to 74 °C. Further, in data set [1], the Emax is 92% and the pEC50 is 7.40. In addition, in data set [2], the Emax was 89% and the pEC50 is 6.99.

With `COc1cc2c(c(-c3cccc(N4CC(C(=O)[O-])C4)c3)c1)NCC(C)(C)O2.[Na+]` [Example 193, sodium 1-[3-(7-methoxy-2,2-dimethyl-3,4-dihydro-1,4-benzoxazin-5-yl)phenyl]azetidine-3-carboxylate], the melting point lay in the range of 144 to 152 °C. Besides, in data set [1], the Emax turned out to be 109% and the pEC50 was 5.93. In data set [2], the Emax is 85% and the pEC50 was 6.10.

The compound `CC1Nc2c(cc(C(F)(F)F)cc2-c2cccc(N3CC(C(=O)O)C3)c2)OC1(C)C` (stereo not drawn) [Example 197, 1-[3-[2,2,3-trimethyl-7-(trifluoromethyl)-3,4-dihydro-1,4-benzoxazin-5-yl]phenyl]azetidine-3-carboxylic acid] returned a melting point of 83 to 95 °C. Also, in data set [1], the Emax is 55% and the pEC50 was 7.85. In data set [2], the Emax is 50% and the pEC50 is 7.47.

Turning to `CC(C)C1CNc2c(cc(C(F)(F)F)cc2-c2cccc(N3CC(C(=O)O)C3)c2)O1` (stereo not drawn) [Example 198, 1-[3-[2-isopropyl-7-(trifluoromethyl)-3,4-dihydro-2H-1,4-benzoxazin-5yl]phenyl]azetidine-3-carboxylic acid], the melting point was 88 to 89 °C. In data set [1], the Emax is 71% and the negative logarithm of the EC50 (pEC50) was 7.85. Also, in data set [2], the maximal effect (Emax) was 59% and the pEC50 was 7.42.

`O=C(O)C1CN(c2cccc(-c3cc(C(F)(F)F)cc4c3NCCC4)c2)C1` [Example 201, 1-[3-[6-(trofluromethyl)-1,2,3,4-tetrahydroquinolin-8-yl]phenyl]azetidine-3-carboxylic acid] gave a melting point of 75 to 81 °C. Besides, in data set [1], the Emax was determined as 99% and the pEC50 was 6.55. Also, in data set [2], the Emax turned out to be 65% and the pEC50 is 6.12.

`CC1(C)CNc2cc(C(F)(F)F)cc(-c3cccc(N4CC(C(=O)O)C4)c3)c2O1` [Example 202, 1-[3-[2,2-dimethyl-6-(trifluoromethyl)-3,4-dihydro-1,4-benzoxazin-8-yl]phenyl]azetidine-3-carboxylic acid] yielded a melting point of 160 to 169 °C. In addition, in data set [1], the Emax turned out to be 55% and the pEC50 is 6.51. Further, in data set [2], the Emax turned out to be 51% and the negative-log EC50 (pEC50) is 6.52.

The compound `CC1(C)CNc2c(cc(C(C)(C)C)cc2-c2cccc(N3CC(C(=O)[O-])C3)c2)C1.[Na+]` [Example 204, sodium 1-[3-(6-tert-butyl-3,3-dimethyl-2,4-dihydro-1H-quinolin-8-yl)phenyl]azetidine-3-carboxylate] gave a melting point of 163 to 173 °C. In data set [1], the Emax was found to be 87% and the negative logarithm of the EC50 (pEC50) is 8.52. Moreover, in data set [2], the Emax was determined as 84% and the pEC50 was 8.52.

Compound `CC1N(c2cccc(N3CC(C(=O)O)C3)c2)c2ccc(C(F)(F)F)cc2OC1(C)C` (stereo not drawn) [Example 216, 1-[3-[2,2,3-trimethyl-7-(trifluoromethyl)-3H-1,4-benzoxazin-4-yl]phenyl]azetidine-3-carboxylate acid] returned a melting point of 70 to 80 °C. Moreover, in data set [1], the maximal response (Emax) is 98% and the pEC50 is 8.10. For the same compound, in data set [2], the Emax worked out at 115% and the pEC50 was 7.89.

`CCC1(CC)CN(c2cccc(N3CC(C(=O)O)C3)c2)c2ccc(C(F)(F)F)cc2O1` [Example 218, 1-[3-[2,2-diethyl-7-(trifluoromethyl)-3H-1,4-benzoxazin-4-yl]phenyl]azetidine-3-carboxylic acid] came in with a melting point of 70 to 79 °C. In addition, in data set [1], the maximal effect (Emax) was 72% and the pEC50 was 8.30. Also, in data set [2], the Emax came out at 73% and the pEC50 was 7.85.

As for `CC1(C)Cc2cc(C(F)(F)F)ccc2N(c2cccc(N3CC(C(=O)O)C3)c2)C1` [Example 219, 1-[3-[3,3-dimethyl-6-(trifluoromethyl)-2,4-dihydroquinolin-1-yl]phenyl]azetidine-3-carboxylic acid], the melting point lay in the range of 66 to 84 °C. Besides, in data set [1], the Emax came to 105% and the pEC50 was 8.30. In data set [2], the Emax came to 110% and the pEC50 was 7.49.

As to `O=C(O)C1CN(c2cccc(N3CCCc4cc(C(F)(F)F)ccc43)c2)C1` [Example 220, 1-[3-[6-(trifluoromethyl)-3,4-dihydro-2H-quinolin-1-yl]phenyl]azetidine-3-carboxylic acid], the melting point was 57 to 62 °C. In data set [1], the maximum response (Emax) came to 92% and the pEC50 was 8.22. Also, in data set [2], the Emax stood at 90% and the negative logarithm of the EC50 (pEC50) is 7.85.

For the compound `CC(C)c1ccc2c(c1)CCCN2c1cccc(N2CC(C(=O)[O-])C2)c1.[Na+]` [Example 221, sodium 1-[3-(6-isopropyl-3,4-dihydro-2H-1uinolin-1-yl)phenyl]azetidine-3-carboxylate], the melting point was in the range of 49 to 52 °C. Moreover, in data set [1], the Emax amounted to 97% and the pEC50 is 7.17. For the same compound, in data set [2], the Emax came to 92% and the pEC50 was 6.64.

`CC(C)C1CN(c2cccc(N3CC(C(=O)O)C3)c2)c2ccc(C(F)(F)F)cc2O1` (stereo not drawn) [Example 223, 1-[3-[2-isopropyl-7-(trifluoromethyl)-2,3-dihydro-1,4-benzoxazin-4-yl]phenyl]azetidine-3-carboxylic acid]: the melting point is 64 to 71 °C. In data set [1], the Emax was 80% and the negative logarithm of the EC50 (pEC50) was 7.60. For the same compound, in data set [2], the Emax stood at 81% and the pEC50 is 7.32.

As to `CC1(C)CN(c2cccc(N3CC(C(=O)O)C3)c2)c2ccc(Cl)cc2O1` [Example 224, 1-[3-(7-chloro-2,2-dimtethyl-3H-1,4-benzoxazin-4-yl)phenyl]azetidine-3-carboxylic acid], the melting point lay in the range of 66 to 71 °C. In data set [1], the Emax is 110% and the pEC50 is 7.42. For the same compound, in data set [2], the Emax was 93% and the pEC50 was 7.19.

For the compound `CC1(C)CN(c2cccc(N3CC(C(=O)O)C3)c2)c2ccc(OC(F)(F)F)cc2O1` [Example 226, 1-[3-[2,2-dimethyl-7-(trifluoromethyoxy)-3H-1,4-benzoxazin-4-yl]phenyl]azetidine-3-carboxylic acid], the melting point was 69 to 76 °C. In data set [1], the Emax worked out at 103% and the negative-log EC50 (pEC50) was 7.15. In data set [2], the Emax came to 106% and the pEC50 was 6.81.

Compound `Cc1ccc2c(c1)OC(C)(C)CN2c1cccc(N2CC(C(=O)O)C2)c1` [Example 227, 1-[3-(2,2,7-trimethyl-3H-1,4-benzoxazin-4-yl)phenyl]azetidine-3-carboxylic acid] registered a melting point of 68 to 78 °C. In data set [1], the Emax came out at 104% and the pEC50 was 7.11. Further, in data set [2], the Emax amounted to 93% and the pEC50 was 6.74.

Turning to `CC1(C)CN(c2cccc(N3CC(C(=O)O)C3)c2)c2ccc(C3CC3)cc2O1` [Example 229, 1-[3-(7-cyclopropyl-2,2-dimethyl-3H-1,4-benzoxazin-4yl)phenyl]azetidine-3-carboxylic acid], the melting point lay in the range of 67 to 71 °C. Further, in data set [1], the Emax came out at 104% and the pEC50 was 6.61. Besides, in data set [2], the Emax is 104% and the pEC50 was 6.38.
